Reference: the NIST ThermoML archive (doi:10.1016/j.jct.2012.11.014)

Assay: xn = mol fraction of the nth substance listed
Settings: 101 kPa, Liquid; for speed of sound: Frequency=2 MHz, Linear variable-path acoustic interferometer; for viscosity: Oscillating disk viscometry; for mass density: Vibrating tube method

CC(=O)[O-].C[NH+](C)C [trimethylammonium acetate] + C[S+](C)[O-]
Settings | mass density [kg/m3] | speed of sound [m/s] | viscosity [mPa·s]
298.15 K, x1 = 0.0159 | 1094.86 | 1497 | 2.03
298.15 K, x1 = 0.0656 | 1093.33 | 1501 | 2.16
298.15 K, x1 = 0.1182 | 1091.46 | 1505 | 2.29
298.15 K, x1 = 0.1693 | 1089.27 | 1509 | 2.41
298.15 K, x1 = 0.2333 | 1086.77 | 1513 | 2.55
298.15 K, x1 = 0.2857 | 1084.45 | 1517 | 2.66
298.15 K, x1 = 0.3408 | 1081.92 | 1521 | 2.77
298.15 K, x1 = 0.3877 | 1079.63 | 1524 | 2.84
298.15 K, x1 = 0.4358 | 1077.39 | 1527 | 2.91
298.15 K, x1 = 0.5129 | 1073.63 | 1532 | 3
298.15 K, x1 = 0.5506 | 1071.66 | 1534 | 3.03
298.15 K, x1 = 0.5959 | 1069.68 | 1536 | 3.05
298.15 K, x1 = 0.6852 | 1065.62 | 1540 | 3.08
298.15 K, x1 = 0.7487 | 1062.84 | 1542 | 3.06
298.15 K, x1 = 0.8156 | 1060.15 | 1543 | 3.01
298.15 K, x1 = 0.8651 | 1058.27 | 1544 | 2.97
298.15 K, x1 = 0.9231 | 1056.26 | 1544 | 2.89
298.15 K, x1 = 0.961 | 1055.02 | 1544 | 2.84
298.15 K, x1 = 1 | 1053.85 | 1544 | 2.76
303.15 K, x1 = 0.0159 | 1092.06 | 1473 | 1.85
303.15 K, x1 = 0.0656 | 1090.58 | 1477 | 1.99
303.15 K, x1 = 0.1182 | 1088.73 | 1480 | 2.12
303.15 K, x1 = 0.1693 | 1086.54 | 1484 | 2.23
303.15 K, x1 = 0.2333 | 1083.95 | 1488 | 2.37
303.15 K, x1 = 0.2857 | 1081.41 | 1492 | 2.47
303.15 K, x1 = 0.3408 | 1078.78 | 1495 | 2.56
303.15 K, x1 = 0.3877 | 1076.45 | 1498 | 2.63
303.15 K, x1 = 0.4358 | 1074.03 | 1501 | 2.7
303.15 K, x1 = 0.5129 | 1070.25 | 1505 | 2.78
303.15 K, x1 = 0.5506 | 1068.52 | 1507 | 2.81
303.15 K, x1 = 0.5959 | 1066.19 | 1509 | 2.83
303.15 K, x1 = 0.6852 | 1062.02 | 1512 | 2.82
303.15 K, x1 = 0.7487 | 1059.21 | 1513 | 2.8
303.15 K, x1 = 0.8156 | 1056.44 | 1514 | 2.75
303.15 K, x1 = 0.8651 | 1054.43 | 1515 | 2.65
303.15 K, x1 = 0.9231 | 1052.36 | 1515 | 2.55
303.15 K, x1 = 0.961 | 1051.09 | 1515 | 2.48
303.15 K, x1 = 1 | 1049.87 | 1514 | 2.37
308.15 K, x1 = 0.0159 | 1085.87 | 1461 | 1.71
308.15 K, x1 = 0.0656 | 1084.72 | 1465 | 1.84
308.15 K, x1 = 0.1182 | 1083.28 | 1469 | 1.96
308.15 K, x1 = 0.1693 | 1081.2 | 1473 | 2.07
308.15 K, x1 = 0.2333 | 1078.93 | 1479 | 2.2
308.15 K, x1 = 0.2857 | 1076.51 | 1483 | 2.29
308.15 K, x1 = 0.3408 | 1073.96 | 1487 | 2.39
308.15 K, x1 = 0.3877 | 1071.75 | 1491 | 2.45
308.15 K, x1 = 0.4358 | 1069.43 | 1494 | 2.51
308.15 K, x1 = 0.5129 | 1065.68 | 1499 | 2.57
308.15 K, x1 = 0.5506 | 1063.92 | 1501 | 2.59
308.15 K, x1 = 0.5959 | 1061.71 | 1504 | 2.6
308.15 K, x1 = 0.6852 | 1057.63 | 1507 | 2.59
308.15 K, x1 = 0.7487 | 1054.92 | 1509 | 2.55
308.15 K, x1 = 0.8156 | 1052.23 | 1511 | 2.49
308.15 K, x1 = 0.8651 | 1050.25 | 1511 | 2.39
308.15 K, x1 = 0.9231 | 1048.26 | 1511 | 2.27
308.15 K, x1 = 0.961 | 1046.98 | 1510 | 2.19
308.15 K, x1 = 1 | 1045.81 | 1508 | 2.06
313.15 K, x1 = 0.0159 | 1081.32 | 1443 | 1.61
313.15 K, x1 = 0.0656 | 1080.52 | 1447 | 1.73
313.15 K, x1 = 0.1182 | 1079.21 | 1452 | 1.85
313.15 K, x1 = 0.1693 | 1077.1 | 1457 | 1.96
313.15 K, x1 = 0.2333 | 1074.98 | 1463 | 2.08
313.15 K, x1 = 0.2857 | 1072.77 | 1468 | 2.16
313.15 K, x1 = 0.3408 | 1070.09 | 1472 | 2.26
313.15 K, x1 = 0.3877 | 1067.96 | 1476 | 2.31
313.15 K, x1 = 0.4358 | 1065.48 | 1481 | 2.36
313.15 K, x1 = 0.5129 | 1061.68 | 1486 | 2.41
313.15 K, x1 = 0.5506 | 1060.02 | 1489 | 2.43
313.15 K, x1 = 0.5959 | 1057.67 | 1491 | 2.44
313.15 K, x1 = 0.6852 | 1053.56 | 1495 | 2.41
313.15 K, x1 = 0.7487 | 1050.78 | 1497 | 2.37
313.15 K, x1 = 0.8156 | 1048.06 | 1497 | 2.29
313.15 K, x1 = 0.8651 | 1045.97 | 1496 | 2.18
313.15 K, x1 = 0.9231 | 1044.14 | 1495 | 2.06
313.15 K, x1 = 0.961 | 1042.88 | 1493 | 1.97
313.15 K, x1 = 1 | 1041.7 | 1490 | 1.83
